Assay results taken from ChEMBL document CHEMBL1131216, “Anhydrolide macrolides. 2. Synthesis and antibacterial activity of 2,3-anhydro-6-O-methyl 11,12-carbazate erythromycin A analogues” (1998).
Converted amounts (≈) assume the structure as drawn.

Experiments:
Assay type in all cases: functional
Streptococcus pneumoniae [1] = test: In vitro antibacterial activity of 5979 strain of Gram positive bacteria Streptococcus pneumoniae
Streptococcus pyogenes [2] = test: In vitro antibacterial activity of 930 strain of Gram positive bacteria Streptococcus pyogenes
Streptococcus pyogenes [3] = test: In vitro antibacterial activity of EES61 strain of Gram positive bacteria Streptococcus pyogenes
Streptococcus pneumoniae [4] = test: In vitro antibacterial activity of ATCC 6303 strain of Gram positive bacteria Streptococcus pneumoniae
Staphylococcus aureus [5] = test: In vitro antibacterial activity of A-5278 strain of Gram positive bacteria Staphylococcus aureus
Streptococcus pyogenes [6] = test: In vitro antibacterial activity of PIU2584 strain of Gram positive bacteria Streptococcus pyogenes
Haemophilus influenzae = test: In vitro antibacterial activity of DILL strain of Gram negative bacteria Haemophilus influenzae
Staphylococcus aureus [7] = test: In vitro antibacterial activity of A5177 strain of Gram positive bacteria Staphylococcus aureus
Streptococcus pneumoniae [8] = test: In vitro antibacterial activity of 5649 strain of Gram positive bacteria Streptococcus pneumoniae
Staphylococcus aureus [9] = test: In vitro antibacterial activity of 6538P strain of Gram positive bacteria Staphylococcus aureus

| MIC (Streptococcus pneumoniae [1]) [µg/mL] | MIC (Streptococcus pyogenes [2]) [µg/mL] | MIC (Streptococcus pyogenes [3]) [µg/mL] | MIC (Streptococcus pneumoniae [4]) [µg/mL] | MIC (Staphylococcus aureus [5]) [µg/mL] | MIC (Streptococcus pyogenes [6]) [µg/mL] | MIC (Haemophilus influenzae) [µg/mL] | MIC (Staphylococcus aureus [7]) [µg/mL] | MIC (Streptococcus pneumoniae [8]) [µg/mL] | MIC (Staphylococcus aureus [9]) [µg/mL] | SMILES |
| --- | --- | --- | --- | --- | --- | --- | --- | --- | --- | --- |
| > 64 | > 64 | 0.25 (≈ 0.409 µM) | 0.25 (≈ 0.409 µM) | > 100 | 1 (≈ 1.63 µM) | 32 (≈ 52.3 µM) | 1.56 (≈ 2.55 µM) | 1 (≈ 1.63 µM) | 1.56 (≈ 2.55 µM) | CC[C@H]1OC(=O)/C(C)=C/[C@H](C)[C@@H](O[C@@H]2O[C@H](C)C[C@H](N(C)C)[C@H]2O)[C@@](C)(OC)C[C@@H](C)C(=O)[C@H](C)[C@H]2N(N)C(=O)O[C@]12C |
| > 64 | 64 (≈ 89.4 µM) | 0.25 (≈ 0.349 µM) | 0.25 (≈ 0.349 µM) | > 100 | 2 (≈ 2.79 µM) | > 64 | 0.78 (≈ 1.09 µM) | 2 (≈ 2.79 µM) | 0.78 (≈ 1.09 µM) | CC[C@H]1OC(=O)/C(C)=C/[C@H](C)[C@@H](O[C@@H]2O[C@H](C)C[C@H](N(C)C)[C@H]2O)[C@@](C)(OC)C[C@@H](C)C(=O)[C@H](C)[C@H]2N(NCCc3ccccc3)C(=O)O[C@]12C |
| > 128 | > 128 | 0.03 (≈ 0.0427 µM) | 0.03 (≈ 0.0427 µM) | > 100 | 0.5 (≈ 0.711 µM) | 8 (≈ 11.4 µM) | 0.2 (≈ 0.285 µM) | 1 (≈ 1.42 µM) | 0.39 (≈ 0.555 µM) | CC[C@H]1OC(=O)/C(C)=C/[C@H](C)[C@@H](O[C@@H]2O[C@H](C)C[C@H](N(C)C)[C@H]2O)[C@@](C)(OC)C[C@@H](C)C(=O)[C@H](C)[C@H]2N(NCc3ccncc3)C(=O)O[C@]12C |
| > 64 | > 64 | 0.03 (≈ 0.0418 µM) | 0.06 (≈ 0.0836 µM) | > 100 | 0.5 (≈ 0.696 µM) | 2 (≈ 2.79 µM) | 0.2 (≈ 0.279 µM) | 2 (≈ 2.79 µM) | 0.2 (≈ 0.279 µM) | CC[C@H]1OC(=O)/C(C)=C/[C@H](C)[C@@H](O[C@@H]2O[C@H](C)C[C@H](N(C)C)[C@H]2O)[C@@](C)(OC)C[C@@H](C)C(=O)[C@H](C)[C@H]2N(NCc3ccccc3O)C(=O)O[C@]12C |
| > 128 | 128 (≈ 176 µM) | 0.015 (≈ 0.0206 µM) | 0.03 (≈ 0.0413 µM) | > 100 | 0.5 (≈ 0.688 µM) | 4 (≈ 5.5 µM) | 0.02 (≈ 0.0275 µM) | 0.5 (≈ 0.688 µM) | 0.05 (≈ 0.0688 µM) | CC[C@H]1OC(=O)/C(C)=C/[C@H](C)[C@@H](O[C@@H]2O[C@H](C)C[C@H](N(C)C)[C@H]2O)[C@@](C)(OC)C[C@@H](C)C(=O)[C@H](C)[C@H]2N(NCc3ccc(C#N)cc3)C(=O)O[C@]12C |
| 64 (≈ 82.6 µM) | 64 (≈ 82.6 µM) | 0.03 (≈ 0.0387 µM) | 0.03 (≈ 0.0387 µM) | > 100 | 1 (≈ 1.29 µM) | 8 (≈ 10.3 µM) | 0.1 (≈ 0.129 µM) | 1 (≈ 1.29 µM) | 0.1 (≈ 0.129 µM) | CC[C@H]1OC(=O)/C(C)=C/[C@H](C)[C@@H](O[C@@H]2O[C@H](C)C[C@H](N(C)C)[C@H]2O)[C@@](C)(OC)C[C@@H](C)C(=O)[C@H](C)[C@H]2N(NCCCc3ccc([N+](=O)[O-])cc3)C(=O)O[C@]12C |
| > 128 | > 128 | > 128 | > 128 | > 100 | > 128 | > 128 | > 100 | > 128 | > 100 | CC[C@H]1OC(=O)/C(C)=C/[C@H](C)[C@@H](O[C@@H]2O[C@H](C)C[C@H](N(C)C)[C@H]2O)[C@@](C)(OC)C[C@@H](C)C2=NN3C(=O)O[C@@]1(C)[C@H]3[C@H]2C |
| 32 (≈ 40.3 µM) | 16 (≈ 20.1 µM) | 0.25 (≈ 0.314 µM) | 0.5 (≈ 0.629 µM) | 100 (≈ 126 µM) | 2 (≈ 2.52 µM) | 16 (≈ 20.1 µM) | 3.1 (≈ 3.9 µM) | 2 (≈ 2.52 µM) | 3.1 (≈ 3.9 µM) | CC[C@H]1OC(=O)/C(C)=C/[C@H](C)[C@@H](O[C@@H]2O[C@H](C)C[C@H](N(C)C)[C@H]2O)[C@@](C)(OC)C[C@@H](C)C(=O)[C@H](C)[C@H]2N(NCc3ccc(N(C)C)c4ccccc34)C(=O)O[C@]12C |
| > 128 | > 128 | 0.03 (≈ 0.041 µM) | 0.03 (≈ 0.041 µM) | > 100 | 0.5 (≈ 0.683 µM) | 4 (≈ 5.47 µM) | 0.2 (≈ 0.273 µM) | 1 (≈ 1.37 µM) | 0.2 (≈ 0.273 µM) | CC[C@H]1OC(=O)/C(C)=C/[C@H](C)[C@@H](O[C@@H]2O[C@H](C)C[C@H](N(C)C)[C@H]2O)[C@@](C)(OC)C[C@@H](C)C(=O)[C@H](C)[C@H]2N(NCc3ccccc3CO)C(=O)O[C@]12C |
| > 128 | 128 (≈ 171 µM) | 0.03 (≈ 0.0402 µM) | 0.03 (≈ 0.0402 µM) | > 100 | 1 (≈ 1.34 µM) | 8 (≈ 10.7 µM) | 0.05 (≈ 0.0669 µM) | 1 (≈ 1.34 µM) | 0.05 (≈ 0.0669 µM) | CC[C@H]1OC(=O)/C(C)=C/[C@H](C)[C@@H](O[C@@H]2O[C@H](C)C[C@H](N(C)C)[C@H]2O)[C@@](C)(OC)C[C@@H](C)C(=O)[C@H](C)[C@H]2N(NCc3ccc([N+](=O)[O-])cc3)C(=O)O[C@]12C |
